In patent publication US8841087B2 (priority 2008, dated 2014):

System: clinical strains of Mycobacterium tuberculosis
Assay: Reference phenotypic test of antibiotic sensitivity in solid medium
Format: cell-based
Conditions: six clinical strains

CC[C@@H](CO)NCCN[C@@H](CC)CO [ethambutol]
sensitivity at critical concentration (ethambutol, 5 μg/ml): sensitive

NNC(=O)c1ccncc1 [isoniazid]
sensitivity at critical concentration (isoniazid, 0.2 μg/ml): sensitive

[H]/N=C(/N)N[C@H]1[C@H](O)[C@@H](O)[C@H](O[C@@H]2O[C@@H](C)[C@](O)(C=O)[C@H]2O[C@@H]2O[C@@H](CO)[C@H](O)[C@@H](O)[C@@H]2NC)[C@@H](N/C(N)=N\[H])[C@@H]1O [streptomycin]
sensitivity at critical concentration (streptomycin, 5 μg/ml): sensitive
